The values that follow come from US20230010803A1, “TREATMENTS FOR DIFFUSE LARGE B-CELL LYMPHOMA” (Janssen Pharmaceutica NV, priority 2021, published 2023).

In series [1] the test system is non-GCB DLBCL. Briefly: Phoenix phase III randomized trial of R-CHOP with or without ibrutinib, analysed by LymphGen genetic subtype. The series is classed as in vivo, human. The conditions noted are these: younger patients (age≤60) with N1 DLBCL (n=13).
Series [2] concerns non-GCB DLBCL. The conditions noted are these: cited from earlier work.

As for `C=CC(=O)N1CCC[C@@H](n2nc(-c3ccc(Oc4ccccc4)cc3)c3c(N)ncnc32)C1` [ibrutinib], in series [1], the “3-year EFS” value was 100% and the “3-year OS” value is 100%. Moreover, the “toxicity compared to the placebo arm” value in series [2] (older patients on the ibrutinib arm) was “significantly more toxicity”. Further, the “toxicity of addition of ibrutinib to R-CHOP” value in series [2] (younger patients with non-GCB DLBCL) is on record as “did not significantly increase toxicity”.
